Experimental data as given in patent US20040180817A1, “Neuropathologies associated with expression of tnf-$g (a)” (priority 2001, published 2004).
“Also recorded” adds a separate entry of the source.

How the values were obtained:
[1] = tested on: rrTNF-α-induced reduction in striatal rCBV; assay: Effect of ET receptor antagonist on rrTNF-α-induced acute rCBV reduction (MRI); format: in vivo, rat; settings: 5 mg/kg i.v. 10 min prior to 1.5 μg intrastriatal rrTNF-α; 1.5 h
Description: (§1) Adult male Wistar rats (Harlan-Olac, UK) were anaesthetised with fentanyl/fluanisone and midazolam (0.68 ml/kg of each). Using a 50 μm-tipped glass pipette, 1 μl rat recombinant TNF-α (NIBSC, Potters Bar, UK) solution was injected stereotaxically 1 mm anterior and 3 mm lateral to Bregma, at a depth of 4 mm into the left striatum. Animals were injected with either 0.3 μg/μl or 1.5 μg/μl of TNF-A, each in 0.1% BSA in low-endotoxin saline, or with vehicle solution only. Animals were positioned in the MRI probe (3.4 cm i.d. Alderman-Grant resonator) using a bite-bar. During MRI, anaesthesia was maintained with 0.8-1.2% halothane in 50% N2O/50% O2, ECG was monitored non-invasively and body temperature was maintained at […]. All procedures were approved by the United Kingdom Home Office.
(§2) Magnetic resonance images were acquired using a 300 MHz Varian Inova spectrometer (Varian, Palo Alto, Calif.). […] Diffusion gradients were applied separately along three orthogonal axes and apparent diffusion coefficient (ADC) “trace” maps were calculated^40. […]
(§3) Regions of Interest (ROI) encompassing the striatum were defined on T2-weighted images in each hemisphere, and applied to all images or calculated data maps for quantitation. For the rCBV maps and T2-weighted images the data are expressed as a ratio of injected/non-injected striatal values. […]

[2] = tested on: blood-cerebrospinal fluid barrier and blood-brain barrier; assay: Contrast-enhanced T1-weighted MRI of B-CSF-B / BBB permeability; format: in vivo, rat
Description: as §1
Magnetic resonance images were acquired using a 300 MHz Varian Inova spectrometer (Varian, Palo Alto, Calif.). Anatomical images were acquired using a T2-weighted sequence (repetition time, TR, 3 sec; echo time, TE, 80 msec). […] Diffusion gradients were applied separately along three orthogonal axes and apparent diffusion coefficient (ADC) “trace” maps were calculated^40. […]

[3] = tested on: rat brain striatum (tissue water diffusion); assay: Diffusion weighted MRI: apparent diffusion coefficient (ADC) of tissue water in striatum; format: in vivo; settings: 24 h
Description: as §1, §2, §3

COc1cccc(Oc2c(NS(=O)(=O)c3ccc(C(C)(C)C)cc3)ncnc2OCCO)c1 [Ro 46-2005]
effect on rrTNF-α-induced reduction in striatal rCBV [1]: No significant differences; also recorded: eliminated
BBB breakdown: increase in signal intensity of injected striatum ([2]; Ro 46-2005 pre-treatment + 1.5 g TNF-α (so in the source), 24 h): 10.3±2.7%
effect of pre-treatment on TNF-α-induced B-CSF-B breakdown ([2]; pre-treatment before TNF-α, 1.5 h): did not significantly alter
Apparent Diffusion Coefficient, Right (control) striatum ([3]; Ro 46-2005 i.v. pre-treatment + 1.5 μg rrTNF-α intrastriatal (left)): 7.23 ± 0.17 ×10^−4 mm^2/sec
effect of pre-treatment on TNF-α-induced reduction in ADC ([3]; pre-treatment before 1.5 μg rrTNF-α): not affected
